This data set deals with bladder (detrusor) contractility of BoNT treated rats. As to conditions: rat, in vivo.

With `CN(C)C(=O)Oc1cccc([N+](C)(C)C)c1` [neostigmine], the amplitude of contraction entry is given as “raised”, the baseline pressure entry is listed as “without affecting baseline pressure”, the contractility entry was “improves contractility” and the duration of contraction result is reported as “significant increase”. Moreover, the “duration of voiding contraction” value is given as “increase” and the “interval between bladder contractions” value is reported as “decrease”.

Values taken from patent US20150030667A1, “COMPOSITIONS AND METHODS FOR TREATING U[…]” (priority 2013, published 2015).
